Drawing on ChEMBL document CHEMBL3046574, “Synthesis and Insecticidal Activity of 2-Alkoxy-4H-l,3,2-benzoxazaphosphorin-2-thiones” (1992), this text covers mortality and LC50 for 33 compounds.

Holding throughout (format): functional
Assay [1] concerns Spodoptera litura. Nature of the assay: Insecticidal activity against Spodoptera litura assessed as mortality at 1000 ppm by leaf dipping method. Particulars: foliar.
The test system of assay [2] is Laodelphax striatellus. Kind of assay: Insecticidal activity against Laodelphax striatella (small brown planthopper) assessed as mortality at 500 ppm by root soaking method.
In assay [3] the test system is Laodelphax striatellus. Kind of assay: Insecticidal activity against Laodelphax striatella (small brown planthopper) assessed as mortality at 50 ppm by root soaking method.
Assay [4] deals with Spodoptera litura. Nature of the assay: Insecticidal activity against Spodoptera litura LC50 assessed as mortality by leaf dipping method. The note with it: foliar.

Values after ≈ are worked out from the molar mass of the structure shown.

For orientation: mortality means the share of the test organisms that died. As usually defined, the LC50 is the concentration lethal to half of the exposed cells or organisms.

On to `CCOP1(=S)Oc2ccccc2CN1CC` (stereo not given), for which, in the assay with Spodoptera litura [1], the mortality at 1000 ppm was 93%. The mortality at 500 ppm in the assay on Laodelphax striatellus [2] is 97%.
For `CCCN1Cc2ccccc2OP1(=S)OCC` (stereo not given), in that order: 73% and 40%.
The like results for `CCOP1(=S)Oc2ccccc2CN1C(C)C` (stereo not given) were, in that order, 90% and 43%.
With `C=CCN1Cc2ccccc2OP1(=S)OC` (stereo not given), in the assay with Spodoptera litura [1], the mortality at 1000 ppm is 93%. Also, in the assay on Laodelphax striatellus [2], the mortality at 500 ppm was determined as 97%.
The like results for `C=CCN1Cc2ccccc2OP1(=S)OCC` (stereo not given) were, in that order, 50% and 50%.
As to `CCOP1(=S)Oc2ccc(Cl)cc2CN1CC` (stereo not given), the mortality at 1000 ppm with Spodoptera litura [1] was 20%. Besides, in the assay with Laodelphax striatellus [2], the mortality at 500 ppm was determined as 10%.
Regarding `COP1(=S)Oc2ccc(Cl)cc2CN1C(C)C` (stereo not given), the mortality at 1000 ppm with Spodoptera litura [1] amounted to 40%. In addition, the mortality at 500 ppm in the assay on Laodelphax striatellus [2] came out at 73%.
The like results for `CCOP1(=S)Oc2ccc(Cl)cc2CN1C(C)C` (stereo not given) were, in that order, 33% and 87%.
The like results for `CCCOP1(=S)Oc2ccc(Cl)cc2CN1C(C)C` (stereo not given) were, in that order, 0% and 0%.
With `CCCN1Cc2cc(Cl)ccc2OP1(=S)OCC` (stereo not given), the mortality at 1000 ppm in the assay on Spodoptera litura [1] came out at 0%. In the assay with Laodelphax striatellus [2], the mortality at 500 ppm is 0%.
Take `C=CCN1Cc2cc(Cl)ccc2OP1(=S)OCC` (stereo not given): the mortality at 1000 ppm with Spodoptera litura [1] was 0%. The mortality at 500 ppm in the assay with Laodelphax striatellus [2] was determined as 0%.
In the case of `C=CCN1Cc2cc(Cl)ccc2OP1(=S)OCCC` (stereo not given), the mortality at 1000 ppm in the assay on Spodoptera litura [1] is 13%. Also, the mortality at 500 ppm in the assay on Laodelphax striatellus [2] amounted to 0%.
Consider `CCOP1(=S)Oc2ccc(Cl)cc2CN1CC(C)C` (stereo not given), for which the mortality at 1000 ppm in the assay with Spodoptera litura [1] amounted to 30%. Further, in the assay on Laodelphax striatellus [2], the mortality at 500 ppm was determined as 0%.
Regarding `CCCOP1(=S)Oc2ccc(Cl)cc2CN1CC(C)C` (stereo not given), the mortality at 1000 ppm in the assay on Spodoptera litura [1] was found to be 0%. In the assay on Laodelphax striatellus [2], the mortality at 500 ppm is 0%.
As for `CCOP1(=S)Oc2cc(Cl)c(Cl)cc2CN1CC(C)C` (stereo not given), the mortality at 1000 ppm with Spodoptera litura [1] was 57%. Further, in the assay with Laodelphax striatellus [2], the mortality at 500 ppm was found to be 0%.
The like results for `CCCOP1(=S)Oc2cc(Cl)c(Cl)cc2CN1CC(C)C` (stereo not given) were, in that order, 17% and 0%.
For `CCOP1(=S)Oc2ccc(Br)cc2CN1CC` (stereo not given), in that order: 27% and 0%.
Regarding `COP1(=S)Oc2ccc(Br)cc2CN1C(C)C` (stereo not given), the mortality at 1000 ppm in the assay on Spodoptera litura [1] was 60%. Besides, in the assay on Laodelphax striatellus [3], the mortality at 50 ppm was 85%. In addition, the mortality at 500 ppm in the assay with Laodelphax striatellus [2] amounted to 100%.
For `CCOP1(=S)Oc2ccc(Br)cc2CN1C(C)C` (stereo not given), in that order: 63%, 87% and 100%.
As to `C=CCN1Cc2cc(Br)ccc2OP1(=S)OC` (stereo not given), the mortality at 1000 ppm in the assay with Spodoptera litura [1] is 18%. Also, the mortality at 500 ppm in the assay with Laodelphax striatellus [2] is 0%.
For `C=CCN1Cc2cc(Br)ccc2OP1(=S)OCC` (stereo not given), in that order: 20% and 0%.
With `C=CCN1Cc2cc(Br)ccc2OP1(=S)OCCC` (stereo not given), the mortality at 1000 ppm with Spodoptera litura [1] is 0%. The mortality at 500 ppm in the assay with Laodelphax striatellus [2] was determined as 0%.
With `COP1(=S)Oc2ccc(Br)cc2CN1CC(C)C` (stereo not given), in the assay on Spodoptera litura [1], the mortality at 1000 ppm came out at 0%. Further, the mortality at 500 ppm in the assay with Laodelphax striatellus [2] was determined as 0%.
As to `CCOP1(=S)Oc2ccc(Br)cc2CN1CC(C)C` (stereo not given), the mortality at 1000 ppm with Spodoptera litura [1] came to 0%. For the same compound, the mortality at 500 ppm with Laodelphax striatellus [2] came to 0%.
On to `CCCOP1(=S)Oc2ccc(Br)cc2CN1CC(C)C` (stereo not given), for which the mortality at 1000 ppm in the assay on Spodoptera litura [1] came out at 0%. For the same compound, in the assay with Laodelphax striatellus [2], the mortality at 500 ppm was determined as 0%.
With `CCOP1(=S)Oc2cc(Br)c(Br)cc2CN1C(C)C` (stereo not given), in the assay with Spodoptera litura [1], the mortality at 1000 ppm turned out to be 0%. The mortality at 500 ppm in the assay on Laodelphax striatellus [2] was found to be 0%.
Regarding `CCN1Cc2cc([N+](=O)[O-])ccc2OP1(=S)OC` (stereo not given), the mortality at 1000 ppm with Spodoptera litura [1] stood at 0%. For the same compound, the mortality at 500 ppm in the assay with Laodelphax striatellus [2] was determined as 0%.
For `CCOP1(=S)Oc2ccc([N+](=O)[O-])cc2CN1CC` (stereo not given), the mortality at 1000 ppm in the assay on Spodoptera litura [1] turned out to be 0%. In the assay on Laodelphax striatellus [2], the mortality at 500 ppm was found to be 0%.
As to `CCCOP1(=S)Oc2ccc([N+](=O)[O-])cc2CN1CC` (stereo not given), the mortality at 1000 ppm in the assay with Spodoptera litura [1] came out at 0%. For the same compound, the mortality at 500 ppm with Laodelphax striatellus [2] came out at 0%.
Turning to `CCOP1(=S)Oc2ccc([N+](=O)[O-])cc2CN1C(C)C` (stereo not given), the mortality at 1000 ppm with Spodoptera litura [1] amounted to 0%. In the assay with Laodelphax striatellus [2], the mortality at 500 ppm came out at 0%.
As to `CCN1Cc2ccccc2OP1(=S)OC` (stereo not given), the mortality at 1000 ppm in the assay on Spodoptera litura [1] came out at 97%. Also, the mortality at 500 ppm in the assay with Laodelphax striatellus [2] is 83%.
Turning to `CCOC(=O)CC(SP(=S)(OC)OC)C(=O)OCC` (stereo not given) [MALATHION], the mortality at 1000 ppm in the assay on Spodoptera litura [1] was determined as 100%. Further, the LC50 with Spodoptera litura [4] is 8.3 µg/mL (≈ 25.1 µM). Also, in the assay with Laodelphax striatellus [3], the mortality at 50 ppm was 100%. Also, the mortality at 500 ppm in the assay with Laodelphax striatellus [2] stood at 100%.
For `CNC(=O)Oc1ccccc1OC(C)C` [PROPOXUR], the mortality at 50 ppm in the assay with Laodelphax striatellus [3] turned out to be 16.1%. Further, the mortality at 500 ppm in the assay with Laodelphax striatellus [2] turned out to be 100%.
